Assay: in vitro
Settings: human, hela cells, % viability

Structure (SMILES) | viability at 28.5 h, 10 µM [%]
CCC(Sc1ncccc1C(=O)O)C(=O)O (centres unmarked) [CBK263216] | 98.4
Cn1cc(CC(=O)NCc2ccccc2)c2ccccc21 [CBK200200] | 84.1
O=C(O)c1ccc(CNCc2ccc(-c3ccc(Cl)cc3)o2)cc1 [CBK269619C] | 94.7
NC(=O)c1cn[nH]c1C1CCCCN1Cc1cccc2c1CCOC2 (centres unmarked) [CBK304745] | 83.1
CN(C)CCCn1cnc2c1c(=O)[nH]c(=O)n2Cc1ccccc1 [CBK291234] | 95.3
CCOC(=O)C1CCN(C(=O)CCn2ccc3ccncc32)CC1 [CBK284720] | 84.2
CC(=O)Nc1ccc(S(=O)(=O)N2CCN(S(=O)(=O)c3ccc(C)cc3)CC2)cc1 [CBK264276] | 101
Cc1nc(-c2ccccc2)ncc1COC(=O)N1CCOCC1 [CBK200147] | 112
Cc1ccc(-c2nnc(COC(=O)c3c4c(nc5ccccc35)CCCC4)o2)cc1 [CBK269728] | 105
O=c1[nH]cc(-c2ccc(F)cc2)cc1CNCc1cccc(F)c1 [CBK284697] | 94.6
COc1ccc(OC)c(NC(=O)c2c[nH]c(=O)n(-c3ccc(F)cc3)c2=O)c1 [CBK287552] | 99
c1ccc(-c2cccc(-c3cc(Nc4ccc(N5CCOCC5)cc4)ncn3)c2)cc1 [CBK090930] | 90.2
Clc1ccc(CNC2CCCCC2NCc2ccc(Cl)nc2)cn1 (centres unmarked) [CBK025983] | 82.7
O=c1ccn([C@@H]2O[C@H](CO)[C@H](O)C2O)c(=S)[nH]1 (some centres unmarked) [CBK201210] | 91.8
COc1ccc(NC(=O)CSc2nnc(-c3ccncc3)n2-c2ccc(C)cc2)cc1Cl [CBK266187] | 98.3
COc1ccc(CN2CCN(C(=O)c3cccc(N(C)C)c3)CC2)cc1 [CBK305713] | 98
NS(=O)(=O)c1ccc(NC(S)=Nc2ccc(S(=O)(=O)N3CCCC3)cc2)cc1 [CBK266918] | 80.3
OC(COCc1ccc2c(c1)OCO2)CN1CCN(Cc2ccccc2)CC1 (centres unmarked) [CBK278249C] | 93.5
CCNC(=S)N1CC[C@@H]2N(C)CC[C@]2(c2ccc(OC)c(OC)c2)CC1 [CBK059113T] | 88.5
CC(C)c1nc2c(c(=O)c3ccccc3n2C)c(=O)n1-c1ccccc1 [CBK287947] | 97.6
O=C(O)c1ccc(N2C(=O)CC(N3CCN(c4cccc(C(F)(F)F)c4)CC3)C2=O)cc1 (centres unmarked) [CBK287228] | 93.3
O=c1[nH]nc(-c2cccs2)n1-c1ccncc1 [CBK283868] | 93.2
COc1cc(C(=O)Nc2cc(-c3nc4ncccc4o3)ccc2C)ccc1OCc1ccc(Cl)cc1 [CBK264704] | 112

Structure (SMILES) | viability at 28.5 h, 10 µM [%]
O=C1NC(=O)C2(CCN(C(=O)c3csc4c3CCCC4)C2)N1 (centres unmarked) [CBK305533] | 89.8
O=C(CC(C(=O)O)N1CCOCC1)Nc1ccccc1 (centres unmarked) [CBK267008] | 111
CN(C)c1nc(-c2ccc3c(c2)CCCN3S(C)(=O)=O)cs1 [CBK305016] | 87.1
O=C(O)CCN1C(=O)C(=Cc2ccc(OCc3ccccc3)cc2)c2ccccc2C1=O [CBK297552] | 105
COc1cc(/C=C(/C#N)c2ccc(C(=O)O)cc2)c([N+](=O)[O-])cc1OCc1ccccc1 [CBK268738] | 92
CN(C)c1cc(CNC(=O)c2cc3ccccc3oc2=O)ccn1 [CBK297917] | 88.8
COCCNc1nc(-c2ccc([N+](=O)[O-])cc2)nc2ccccc12 [CBK264819] | 109
CCn1nncc1CNC1CCc2[nH]c3ccc(C)cc3c2C1 (centres unmarked) [CBK304749] | 98.3
O=C1c2ccc(OCCOc3ccc4c(c3)C(=O)N(c3ccc(O)cc3)C4=O)cc2C(=O)N1c1ccc(O)cc1 [CBK262668] | 91.3
CC(NC(=O)CN(c1ccc(Cl)c(Cl)c1)S(=O)(=O)c1ccccc1)c1ccccc1 (centres unmarked) [CBK263781] | 92.8
CN1CCN(C(=O)c2ccc(-c3ccc(N4CCOCC4)cc3)nc2N(C)C)CC1 [CBK106114] | 90
Clc1cccc(Cl)c1CN(Cc1ccccc1)c1ncnc2[nH]cnc12 [CBK266571] | 95.2
Cc1ccn(-c2ccc(N3CCC4(CC3)OCCO4)nn2)n1 [CBK305263] | 91.5
Cc1ccc(S(=O)(=O)NCc2ccc(-c3nn(C)cc3-c3ccncc3C)cc2)cc1 [CBK285632] | 89.2
Cc1nc2ccccc2c(=O)n1CCC(=O)N1CCc2sccc2C1c1ccco1 (centres unmarked) [CBK285706] | 94.3
O=C(Nc1ccccc1)N(O)CC(O)COc1ccccc1 (centres unmarked) [CBK288399] | 90.7
CCOc1ncccc1C(=O)NCc1ccc(NC(N)=O)cc1 [CBK279382] | 111
COc1ccc(NC(=O)Nc2nn(Cc3ccc(Cl)cc3Cl)cc2Br)cc1OC [CBK266930] | 101
COc1nc2nonc2nc1OC [CBK028544] | 110
CCSc1nnc(-c2cccnc2)n1Cc1ccccc1 [CBK076664] | 84.4
CCOc1cccc(NC(=O)/C(C#N)=C\c2cc(OC)c(O)cc2Br)c1 [CBK263189] | 95.2
CC(C)CN1CCN(S(=O)(=O)c2ccc(C(F)(F)F)cc2Cl)CC1 [CBK062740] | 113
Cn1c(=O)c2[nH]c(N3CCCCC3)nc2n(C)c1=O [CBK027630] | 86.1

Structure (SMILES) | viability at 28.5 h, 10 µM [%]
O=C1NCCCC12CCN(Cc1ccc3ncccc3c1)CC2 [CBK284825] | 91.4
CC(=O)N1CCN(CCCC(c2ccc(F)cc2)c2ccc(F)cc2)CC1 [CBK024944C] | 101
CC(=O)N1CCC2(C/C=C/C[C@H]3CN(CC(N)=O)CC[C@H]3NC(=O)CNC2=O)CC1 [CBK292148] | 97.6
O=C(O)c1cc(S(=O)(=O)N2CCCCC2)ccc1O [CBK286595] | 89.6
COc1ccc(Br)c(C(=O)N(C)Cc2cnn(C)c2)c1 [CBK305142] | 97.7
Nc1nc(SCCCN2C(=O)c3cccc4cccc(c34)C2=O)nc2sc3c(c12)CCCC3 [CBK264433] | 99.1
CSCCOc1nc2ccccc2nc1N1CCCC1 [CBK115770] | 91.3
COc1cc(S(=O)(=O)NC2CC(C)(C)NC(C)(C)C2)ccc1F [CBK266561] | 92
Cc1ccc(S(=O)(=O)N(CC(=O)O)c2ccc(C)c(C)c2)cc1 [CBK263778] | 89.6
CN(Cc1nc(-c2cccnc2)no1)S(=O)(=O)c1ccc2ccccc2c1 [CBK267385] | 87.2
CCN(CC)C(=O)Cn1ncc2c3oc(C)cc3n(C(C)C)c2c1=O [CBK282848] | 90.7
CC(=O)CCc1cc(CCC(N)=O)on1 [CBK023350] | 90.3
CC(NCc1ccncc1)=C1C(=O)c2ccccc2C1=O [CBK262890] | 105
N#Cc1ccc(NCc2ccccc2CN2CCCC2CO)nc1 (centres unmarked) [CBK304055] | 95.8
CC(C)c1ccccc1OCC(=O)OCCN1C(=O)c2ccccc2C1=O [CBK264841] | 92.2
CCNC(=O)N1CC(C)N(CCCCc2ccc(F)cc2)C(C)C1 (centres unmarked) [CBK025027C] | 89.9
c1ccc(CN(Cc2ccccc2)Cn2c3ccccc3c3ccccc32)cc1 [CBK263575] | 93.6
Cc1nnc(-c2cccc(S(=O)(=O)Nc3nnc(C(F)(F)F)s3)c2)o1 [CBK062014] | 99.1
O=C1NC(=Nc2ccccn2)SC1Cc1ccc(Br)cc1 (centres unmarked) [CBK263109] | 82.3
O=C(Nc1cccc([N+](=O)[O-])c1)c1cc(S(=O)(=O)N2CCCCC2)ccc1Cl [CBK261367] | 93.9
Cc1cccnc1NC(=O)COc1ccc(Cl)cc1 [CBK262175] | 106
Cc1cc(C)n(S(=O)(=O)c2cc(C(=O)O)c(Cl)cc2Cl)n1 [CBK113170] | 86.3
O=C1NCCNC(=O)C2(C/C=C/COc3ccccc31)CCN(Cc1ccccc1F)CC2 [CBK292024] | 101

Structure (SMILES) | viability at 28.5 h, 10 µM [%]
c1ncc(N2CCCC2)nc1OCCN1CCOCC1 [CBK113430] | 89.1
Nc1nc(OCCN2CCOCC2)cnc1-c1cc(Cl)cc(Cl)c1 [CBK145198] | 99.8
COc1ccc(N2Cc3ccccc3C2=O)cc1OC [CBK113666] | 95.5
Cc1cccc(OCC(=O)Nc2ncccc2OCCCC#N)c1 [CBK305918] | 90.5
COc1cc(-c2nc3ncccc3cc2NS(C)(=O)=O)cc(OC)c1OC [CBK085697] | 92.7
O=C(N/N=C/c1ccc(O)c(I)c1)c1ccncc1 [CBK262144] | 86.2
COc1ccc(OC)c(-n2c(S)nnc2Cn2c(-c3ccccn3)nc3ccccc32)c1 [CBK269320] | 93.5
COc1ccccc1CNc1nccc(-n2ccc(C)n2)n1 [CBK288611] | 111
Cc1ccc(O)c(NC(=O)Cn2nc([N+](=O)[O-])c(Br)c2C)c1 [CBK261718] | 92.2
O=C(CN1CCN(Cc2ccccc2)CC1)Nc1ccccc1Oc1ccccc1 [CBK074782] | 90.2
CC(NCc1nc(=O)c2sccc2[nH]1)c1ccc2c(c1)OCCO2 (centres unmarked) [CBK295157] | 88.4
COc1ccccc1C(CNC(=O)Nc1cc(C)on1)N(C)C (centres unmarked) [CBK305028] | 97.8
O=C(c1csnn1)N1CCN(CCc2ccccc2)CC1 [CBK200228] | 96.6
C=CCn1c(SCC(=O)O)nnc1-c1ccc([N+](=O)[O-])cc1 [CBK262736] | 88.6
COc1cccc(CC(=O)N2C3CCC2CC(O)(c2ccco2)C3)c1 (centres unmarked) [CBK284053] | 80.5
CC1CCN(C(=S)Nc2ccccc2)CC(C)(C)C1 (centres unmarked) [CBK006185] | 93.9
c1ccc(COc2ccccc2-c2cc(Nc3ccc4[nH]ccc4c3)ncn2)cc1 [CBK090856] | 107
COC(=O)c1ccc(NC(=O)c2ccccc2-c2ccccc2C(=O)O)cc1 [CBK265759] | 110
c1ccc(-c2cc(CC3(NCc4c[nH]c5ccccc45)COC3)no2)nc1 [CBK289250] | 102
c1ccc2c(-c3cc(Nc4ccc5[nH]ccc5c4)ncn3)cccc2c1 [CBK037815] | 42.9
